Where two headings read alike, the source gives them in different places.
Assays:
CD4 = CD4 (Homo sapiens, UniProt P01730); experiment: Intracellular CD4 staining; assay type: cell-based; set-up: To study the effect of the CADA derivatives on surface CD4 antigen expression, MT-4 and SupT1 cells were incubated; endogenous in cells; host or cells: MT-4, SupT1, PBMC; details: SupT1 cells, CADA 3.2 μM, 4 days; untreated 97.3%
Description: FIGS. 3A-3B. Intracellular CD4 staining in SupT1 cells after incubation with CADA hydrochloride (3.2 μM) for 4 days. (A) The intracellular CD4 expression of SupT1 cells cultured in medium alone and (B) treated with CADA for 4 days.
The effect of CADA on the intracellular presence of CD4 was also investigated. […] Similar results were also obtained in MT-4 cells and in PBMCs, and with two other anti-CD4 mAbs (OKT4A and OKT4).

[1] = Cytotoxic concentration (Example 2); assay type: cell-based; details: human, PBMC
[2] = tested on: CCR5-using (R5) HIV-1 strain BaL; experiment: Anti-HIV-1 assay (p24 Ag ELISA); assay type: cell-based; details: Human immunodeficiency virus 1, BAL, PBMC; read-out: IC50 against HIV-1 BaL
Description: (§1) The antiviral activity of CADA against HIV-1 and RHV-7 was investigated. PBMCs and […] cell-depleted PBMCs (removed with CD8 magnetic beads; Dynal AS, Oslo, Norway), previously activated with purified PHA (2 μg/ml) and rhIL-2 (1 ng/ml) for 3 days, were pelleted and exposed to HIV-1 (1 ng p24 Ag per 10^6 cells) for 2 hours at 370C. Then the cells were washed three times with warm medium and cultured in complete medium containing rhIL-2 (1 ng/ml) in the presence or absence of different concentrations of CADA hydrochloride. The anti-HIV-1 assays were also performed in MT-4 and SupT1 cells. CADA hydrochloride was diluted in the plates, then the MT-4 cells or SupT1 cells were added and finally the T-tropic HIV-1 strains. The supernatant was collected at day 5 for MT-4 cells, day 8 for SupT1 cells and day 12 for PBMCs, and stored at −20° C. and analyzed for HIV-1 core antigen by p24 Ag ELISA (NEN, Brussels, Belgium). The SupT1 cells were refreshed on day 4, and half of the medium and cells were replaced and fresh CADA-free medium was added. For the PBMCs, fresh culture medium was added at day 6 containing rhIL-2 (but no CADA). For the anti-HHV-7 assays in PBMCs, CADA hydrochloride was diluted in a plate, 2×10˜cells were added and then HHV-7 (KHR strain) was added in complete medium containing rhIL-2 (1 ng/ml). Fresh culture medium was added again at day 6 containing rhIL-2 (but no CADA). The same infection protocol was used for the SupT1 cells, but without rhIL-2. The SupT1 cells were refreshed on day 4 and day 8, half of the medium and the cells were replaced, and fresh medium without CADA was added. The HHV-7 antigen expression was monitored (at day 12) with a specific mAb to HHV-7 (RK-4) (Advanced Biotechnologies, Columbia, Md.) by flow cytometry, as described previously (Thang, Y., et al., Antiviral Res. 43:23-35 (1999)).

HIV-1 strain IIIB = experiment: Anti-HIV-1 assay (p24 Ag ELISA); assay type: cell-based; details: Human immunodeficiency virus 1, IIIB, read-out: IC50 against HIV-1 IIIB
Description: as §1

HHV-7 (KHR strain) = experiment: Anti-HHV-7 assay (HHV-7 antigen expression, flow cytometry, day 12); assay type: cell-based
Description: as §1

[3] = Cytotoxic concentration (Example 2); assay type: cell-based; details: human, SupT1 cells; read-out: cytotoxic concentration (CC50)
[4] = Cytotoxic concentration (Example 2); assay type: cell-based; details: human, MT-4 cells; read-out: cytotoxic concentration (CC50)
CCR5 = experiment: Cell surface expression of HIV coreceptor; assay type: cell-based, human; details: incubation of the cells with CADA for 4 days
Description: (§2) Expression of various other surface antigens was also examined in MT-4 cells, SupT1 cells and PBMCs after incubation with CADA (16 μM) or CADA-free medium at 37° C. for 4 days. After washing with phosphate-buffered saline (PBS) containing 2% FCS(fetal calf serum), the cells were incubated with mAb (as indicated in Table 1) for 20 min at 4° C. Then the cells were washed, fixed with 1% formaldehyde and analyzed by flow cytometry. All mAbs were purchased from Becton-Dickinson (Erembodegem, Belgium).

CXCR4 = experiment: Cell surface expression of HIV coreceptor; assay type: cell-based, human; details: incubation of the cells with CADA for 4 days
Description: as §2

[5] = tested on: 6 different primary HIV-1 isolates; experiment: Activity against primary HIV-1 isolates in PBMCs; assay type: cell-based; details: read-out: activity against primary HIV-1 isolates, range

C=C1CN(S(=O)(=O)c2ccc(C)cc2)CCCN(Cc2ccccc2)CCCN(S(=O)(=O)c2ccc(C)cc2)C1 [CADA]
percentage of intracellular CD4 expression (CD4): 1.3% | CC50 [1]: 73000 nM | IC50 [2]: 800 nM | IC50 (HIV-1 strain IIIB; MT4, MT-4 cells): 300 nM | IC50 (HIV-1 strain IIIB; PBMC): 600 nM | IC50 (HIV-1 strain IIIB; SUP-T1, SupT1 cells): 900 nM | IC50 (HHV-7 (KHR strain); PBMC, CD8+ depleted PBMC, read-out: IC50 against HHV-7): 900 nM | IC50 (HHV-7 (KHR strain); PBMC, read-out: IC50 against HHV-7): 1500 nM | IC50 (HHV-7 (KHR strain); SUP-T1, SupT1 cells, PBMCs and CD8+ T-cell depleted PBMCs, read-out: inhibitory concentration (IC50) for HHV-7, range over cell types): 300 to 1500 nM | IC50 (HHV-7 (KHR strain); SUP-T1, SupT1 cells, read-out: IC50 against HHV-7): 300 nM | CC50 [3]: 185000 nM | CC50 [4]: 134000 nM | cell surface expression of CCR5 (CCR5): remained unchanged | cell surface expression of CXCR4 (CXCR4): remained unchanged | IC50 [5]: 2 to 2300 nM
